Measurements from PubChem BioAssay AID330 (DTP/NCI, 2004).
Where “and” joins values, the source holds several entries; their conditions need not be identical. Identical values can stand only once. Toxic doses and inconclusive results are not listed. The calls were made as follows: active = survival T/C of 150% or more; inactive = T/C below 125% in these data.

Test system: P388 leukemia ip, CD2F1 mice, survival T/C
Assay: NCI In Vivo Anticancer Drug Screen. Data for tumor model P388 Leukemia (intraperitoneal) in CD2F1 (CDF1) mice
Details: endpoint: median survival time, higher = longer survival
Outline: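 Mice carrying the transplanted tumor received test compound or vehicle. Survival was recorded in each group, and the value is the treated-group measurement divided by that of the vehicle-treated control group.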

[1] = dose: 60.0 mg/kg/injection, schedule: Q01DX005 (ip), vehicle: saline with Tween-80
[2] = dose: 120.0 mg/kg/injection, schedule: Q01DX005 (ip), vehicle: saline with Tween-80
[3] = dose: 240.0 mg/kg/injection, schedule: Q01DX005 (ip), vehicle: saline with Tween-80
[4] = dose: 100.0 mg/kg/injection, schedule: Q04DX003 (ip), vehicle: saline
[5] = dose: 200.0 mg/kg/injection, schedule: Q04DX003 (ip), vehicle: saline
[6] = dose: 400.0 mg/kg/injection, schedule: Q04DX003 (ip), vehicle: saline
[7] = dose: 25.0 mg/kg/injection, schedule: Q01DX009 (ip), vehicle: Klucel (hydroxypropylcellulose) (HPC)
[8] = dose: 50.0 mg/kg/injection, schedule: Q01DX009 (ip), vehicle: saline with Tween-80
[9] = dose: 50.0 mg/kg/injection, schedule: Q01DX009 (ip), vehicle: saline
[10] = dose: 100.0 mg/kg/injection, schedule: Q01DX009 (ip), vehicle: saline
[11] = dose: 200.0 mg/kg/injection, schedule: Q01DX009 (ip), vehicle: saline
[12] = dose: 50.0 mg/kg/injection, schedule: Q01DX005 (ip), vehicle: Klucel (hydroxypropylcellulose) (HPC)
[13] = dose: 100.0 mg/kg/injection, schedule: Q01DX009 (ip), vehicle: saline with Tween-80
[14] = dose: 200.0 mg/kg/injection, schedule: Q01DX009 (ip), vehicle: saline with Tween-80
[15] = dose: 100.0 mg/kg/injection, schedule: Q01DX005 (ip), vehicle: Klucel (hydroxypropylcellulose) (HPC)
[16] = dose: 200.0 mg/kg/injection, schedule: Q01DX005 (ip), vehicle: Klucel (hydroxypropylcellulose) (HPC)
[17] = dose: 50.0 mg/kg/injection, schedule: Q01DX005 (ip), vehicle: saline with Tween-80
[18] = dose: 100.0 mg/kg/injection, schedule: Q01DX005 (ip), vehicle: saline with Tween-80

Measured: T/C

C[C@H]1C/C=C/[C@H]2[C@@H]3O[C@]3(C)[C@@H](C)[C@H]3[C@H](Cc4ccccc4)NC(=O)[C@]32OC(=O)O/C=C/[C@@](C)(O)C1=O
inactive: dose: 1.25 mg/kg/injection, schedule: Q01DX009 (ip), vehicle: Klucel (hydroxypropylcellulose) (HPC) 99 % of control | dose: 2.5 mg/kg/injection, schedule: Q01DX009 (ip), vehicle: Klucel (hydroxypropylcellulose) (HPC) 94 % of control | dose: 5.0 mg/kg/injection, schedule: Q01DX009 (ip), vehicle: Klucel (hydroxypropylcellulose) (HPC) 97 % of control | dose: 10.0 mg/kg/injection, schedule: Q01DX009 (ip), vehicle: Klucel (hydroxypropylcellulose) (HPC) 88 % of control

Nc1[nH]c(=S)ncc1-c1ccc(Cl)c(Cl)c1
inactive: [1] 94 % of control | [2] 93 % of control | [3] 88 % of control

C1=NCCCCCCCN=Cc2ccccc2NCCNc2ccccc21
inactive: [4] 94 % of control | [5] 92 % of control | [6] 108 % of control

CC(C)C12CC3=C(C(=O)C1O2)C1(C)CCC2=C(COC2=O)C1CC3 (configuration not stated)
inactive: dose: 3.75 mg/kg/injection, schedule: Q01DX005 (ip), vehicle: DMSO 102 % of control | dose: 7.5 mg/kg/injection, schedule: Q01DX005 (ip), vehicle: DMSO 119 % of control | dose: 15.0 mg/kg/injection, schedule: Q01DX005 (ip), vehicle: DMSO 123 % of control

CCS(=O)(=O)/C=C\S(=O)(=O)CC
inactive: dose: 1.56 mg/kg/injection, schedule: Q04DX003 (ip), vehicle: Klucel (hydroxypropylcellulose) (HPC) 100 % of control | dose: 3.12 mg/kg/injection, schedule: Q04DX003 (ip), vehicle: Klucel (hydroxypropylcellulose) (HPC) 98 % of control | dose: 6.25 mg/kg/injection, schedule: Q04DX003 (ip), vehicle: Klucel (hydroxypropylcellulose) (HPC) 100 % of control

CNc1ccc(/C=C/c2ccnc3ccccc23)cc1
inactive: dose: 3.12 mg/kg/injection, schedule: Q01DX009 (ip), vehicle: Klucel (hydroxypropylcellulose) (HPC) 95 % of control and 98 % of control | dose: 6.25 mg/kg/injection, schedule: Q01DX009 (ip), vehicle: Klucel (hydroxypropylcellulose) (HPC) 108 % of control and 111 % of control and 112 % of control | dose: 12.5 mg/kg/injection, schedule: Q01DX009 (ip), vehicle: Klucel (hydroxypropylcellulose) (HPC) 113 % of control and 97 % of control | [7] 109 % of control and 87 % of control

Nc1ccc(Br)cc1C(=O)c1ccccc1
inactive: dose: 12.5 mg/kg/injection, schedule: Q01DX009 (ip), vehicle: saline with Tween-80 97 % of control | dose: 25.0 mg/kg/injection, schedule: Q01DX009 (ip), vehicle: saline with Tween-80 94 % of control | [8] 94 % of control | [9] 87 % of control | [10] 89 % of control | [11] 116 % of control

Nc1nc(C[P+](c2ccccc2)(c2ccccc2)c2ccccc2)c(CCCCc2ccccc2)c(=O)[nH]1
inactive: dose: 12.5 mg/kg/injection, schedule: Q01DX005 (ip), vehicle: Klucel (hydroxypropylcellulose) (HPC) 101 % of control | dose: 25.0 mg/kg/injection, schedule: Q01DX005 (ip), vehicle: Klucel (hydroxypropylcellulose) (HPC) 101 % of control | [12] 98 % of control and 99 % of control

CC(C)(C#N)OC(=O)Nc1c(Cl)cccc1Cl
inactive: [1] 100 % of control | [2] 98 % of control | [3] 94 % of control

CC1[C@@H]2CC=C3[C@H]4CCC5Cc6nc7c(nc6C[C@@]5(C)C4CC(=O)[C@]32CO[C@]12OC(C)(C)CC2O)CC1CC[C@@H]2C3=C[C@H]4O[C@@]5(O[C@@](C)(CO)C[C@@H]5O)C(C)[C@@]4(O)[C@]3(C)[C@@H](O)CC2[C@]1(C)C7 (some centres not stated)
inactive: dose: 0.08 mg/kg/injection, schedule: Q01DX009 (ip), vehicle: saline + alcohol 86 % of control | dose: 10.0 micrograms/kg/injection, schedule: Q01DX005 (ip), vehicle: saline + alcohol 115 % of control and 117 % of control | dose: 20.0 micrograms/kg/injection, schedule: Q01DX005 (ip), vehicle: saline + alcohol 114 % of control and 115 % of control | dose: 80.0 micrograms/kg/injection, schedule: Q01DX005 (ip), vehicle: saline + alcohol 123 % of control

N#C/C(=C\c1ccc(Cl)cc1)c1ccccc1
inactive: [8] 96 % of control | [9] 100 % of control | [13] 95 % of control | [10] 98 % of control and 96 % of control | [14] 98 % of control | [11] 99 % of control and 92 % of control | dose: 400.0 mg/kg/injection, schedule: Q01DX009 (ip), vehicle: saline with Tween-80 100 % of control | dose: 400.0 mg/kg/injection, schedule: Q01DX009 (ip), vehicle: saline 90 % of control and 91 % of control

CCOP(=O)(Nc1ccc(C)cc1C)OCC
inactive: [9] 100 % of control | dose: 100.0 mg/kg/injection, schedule: Q01DX001 (ip), vehicle: saline 103 % of control | [10] 104 % of control | dose: 200.0 mg/kg/injection, schedule: Q01DX001 (ip), vehicle: saline 107 % of control | [11] 99 % of control | dose: 400.0 mg/kg/injection, schedule: Q01DX001 (ip), vehicle: saline 100 % of control

c1ccc2c(c1)C1=NCCN1c1ccccc1-2
inactive: dose: 12.0 mg/kg/injection, schedule: Q01DX009 (ip), vehicle: saline with Tween-80 109 % of control | dose: 12.0 mg/kg/injection, schedule: Q01DX009 (ip), vehicle: saline 88 % of control | dose: 18.0 mg/kg/injection, schedule: Q01DX009 (ip), vehicle: saline with Tween-80 113 % of control | dose: 18.0 mg/kg/injection, schedule: Q01DX009 (ip), vehicle: saline 105 % of control | dose: 27.0 mg/kg/injection, schedule: Q01DX009 (ip), vehicle: saline with Tween-80 118 % of control | dose: 27.0 mg/kg/injection, schedule: Q01DX009 (ip), vehicle: saline 111 % of control | dose: 40.0 mg/kg/injection, schedule: Q01DX009 (ip), vehicle: saline with Tween-80 122 % of control

O=C(O)c1ccccc1SCCO
inactive: [7] 89 % of control | dose: 50.0 mg/kg/injection, schedule: Q01DX009 (ip), vehicle: Klucel (hydroxypropylcellulose) (HPC) 91 % of control | dose: 200.0 mg/kg/injection, schedule: Q01DX009 (ip), vehicle: Klucel (hydroxypropylcellulose) (HPC) 90 % of control

O=C(Nc1cc(Cl)ccc1Cl)O/N=C/c1ccncc1
inactive: [8] 93 % of control | [13] 94 % of control | [14] 94 % of control

CSc1ncc(Br)c(Sc2nccn2C)n1
inactive: [1] 112 % of control | [2] 117 % of control | [3] 114 % of control

CCOC(=O)c1ccc(N2C(=O)OC(C)(C)C2=O)cc1
inactive: [12] 103 % of control | [15] 97 % of control | [16] 101 % of control

COC(=O)c1c(C(N)=O)c(C)n(NC(N)=O)c1C
inactive: [17] 117 % of control | [18] 107 % of control | dose: 200.0 mg/kg/injection, schedule: Q01DX005 (ip), vehicle: saline with Tween-80 108 % of control

[Co].[N-]=C=S.[N-]=C=S.[N-]=C=S.[NH2-].[NH2-].[NH2-]
inactive: dose: 50.0 mg/kg/injection, schedule: Q01DX001 (ip), vehicle: saline with Tween-80 101 % of control | dose: 50.0 mg/kg/injection, schedule: Q01DX005 (ip), vehicle: saline 96 % of control | dose: 100.0 mg/kg/injection, schedule: Q01DX001 (ip), vehicle: saline with Tween-80 99 % of control and 94 % of control | dose: 100.0 mg/kg/injection, schedule: Q01DX005 (ip), vehicle: saline 113 % of control | dose: 200.0 mg/kg/injection, schedule: Q01DX001 (ip), vehicle: saline with Tween-80 98 % of control and 106 % of control | dose: 400.0 mg/kg/injection, schedule: Q01DX001 (ip), vehicle: saline with Tween-80 98 % of control

NC(N)=NN=C(C1CC1)C1CC1
inactive: [12] 100 % of control | [15] 98 % of control | [16] 103 % of control

CC1CC(C)C(C)C(CNCC2CC(C)CC(C)C2C)C1 (configuration not stated)
inactive: dose: 12.5 mg/kg/injection, schedule: Q01DX005 (ip), vehicle: saline with Tween-80 99 % of control | dose: 25.0 mg/kg/injection, schedule: Q01DX005 (ip), vehicle: saline with Tween-80 99 % of control | [17] 102 % of control and 97 % of control | [18] 102 % of control

FC(F)(F)c1ccc2c(c1)N(CCCCl)c1ccccc1S2
inactive: dose: 50.0 mg/kg/injection, schedule: Q04DX003 (ip), vehicle: saline 94 % of control | [4] 99 % of control | [5] 104 % of control | [6] 98 % of control

NC(=S)COc1ccccc1
inactive: [8] 105 % of control | [13] 101 % of control | [14] 105 % of control
